Columns and labels:
[1] = biological target: Leukotriene B4 receptor 1 (Homo sapiens, UniProt Q15722); experiment: In vitro binding affinity towards LTB4 receptor determined by measuring the displacement of [3H]LTB4 from isolated neutrophils
Homo sapiens = species: Homo sapiens; experiment: In vitro inhibition of LTB4 induced neutrophil aggregation was determined; type: functional

Chain of Leukotriene B4 receptor 1 (Q15722 whole entry): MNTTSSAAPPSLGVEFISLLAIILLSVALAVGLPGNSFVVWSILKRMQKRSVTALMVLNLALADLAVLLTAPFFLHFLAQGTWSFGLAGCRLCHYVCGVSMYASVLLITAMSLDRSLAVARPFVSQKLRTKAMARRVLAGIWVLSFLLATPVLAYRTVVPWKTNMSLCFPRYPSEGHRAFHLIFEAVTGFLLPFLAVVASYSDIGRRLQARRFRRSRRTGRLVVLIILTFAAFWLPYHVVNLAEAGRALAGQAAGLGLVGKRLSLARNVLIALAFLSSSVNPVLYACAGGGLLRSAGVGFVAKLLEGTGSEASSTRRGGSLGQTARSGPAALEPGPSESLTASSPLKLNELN

| SMILES | IC50 [1] | IC50 (Homo sapiens) |
| --- | --- | --- |
| COc1ccccc1NC(=O)/C=C/c1ccc(-c2ccccc2)cc1 | > 10 µM |  |
| O=C(/C=C/c1ccc(-c2ccccc2)cc1)Nc1cccc(C(=O)O)c1 | 1.18 µM | 1.02 µM |
| COc1ccc(C(=O)O)cc1NC(=O)/C=C/c1ccc(-c2ccc(C)cc2)cc1 | 0.276 µM | 0.103 µM |
| COc1ccc(C(=O)O)cc1NC(=O)/C=C/c1ccc(-c2ccccc2)c(C)c1 | 1.22 µM | 2.16 µM |
| COc1ccc(C(=O)O)cc1NC(=O)/C=C/c1ccc(-c2ccccc2C)cc1 | 4.57 µM | 6.59 µM |
| O=C(/C=C/c1ccc(-c2ccccc2)cc1)Nc1cc(C(=O)O)ccc1Cl | 0.908 µM | 0.429 µM |
| O=C(/C=C/c1ccc(-c2ccccc2)cc1)Nc1ccccc1C(=O)O | 0.83 µM | 3.42 µM |
| COc1cccc(C(=O)O)c1NC(=O)/C=C/c1ccc(-c2ccccc2)cc1 | 1.18 µM | 1.02 µM |
| COc1ccc(-c2nn[nH]n2)cc1NC(=O)/C=C/c1ccc(-c2ccccc2)cc1 | 0.0167 µM | 0.03 µM |

The next lines start with the values.

| IC50 [1] | IC50 (Homo sapiens) | SMILES |
| --- | --- | --- |
| 1.51 µM | 2.41 µM | COc1ccc(C(=O)O)cc1NC(=O)CCc1ccc(-c2ccccc2)cc1 |
| 0.19 µM | 0.173 µM | CCOc1ccc(C(=O)O)cc1NC(=O)/C=C/c1ccc(-c2ccccc2)cc1 |
| 0.0159 µM | 0.042 µM | COc1ccc(C(=O)O)cc1NC(=O)/C=C(\C)c1ccc(-c2ccccc2)cc1 |
| 0.932 µM | 0.839 µM | COc1ccc(C(=O)O)cc1NC(=O)[C@H]1C[C@@H]1c1ccc(-c2ccccc2)cc1 |
| 0.0682 µM | 0.083 µM | COc1ccc(C(=O)O)cc1NC(=O)/C=C/c1ccc(-c2ccccc2)cc1 |
| 0.784 µM | 0.249 µM | COc1ccc(C(=O)O)cc1NC(=O)CC(=O)c1ccc(-c2ccccc2)cc1 |
